Measurements as given in patent publication US9567586B2, “EpCAM aptamer for detection of cancer stem cells” (DEAKIN UNIVERSITY, priority 2012, dated 2017).
Where two headings read alike, the source gives them in different places.

Tests used:
[1] = target: T1, native EpCAM expressed on the cell surface (Homo sapiens, UniProt P16422); assay: Binding affinities of EpCAM aptamers by flow cytometry; conditions: read-out: KD (±SEM)
T1 construct: host or cells: T47D, MCF7, MDA-MB-231, HT-29 (EpCAM-positive); U118MG (EpCAM-negative control)
T1 sequence (P16422 24-314): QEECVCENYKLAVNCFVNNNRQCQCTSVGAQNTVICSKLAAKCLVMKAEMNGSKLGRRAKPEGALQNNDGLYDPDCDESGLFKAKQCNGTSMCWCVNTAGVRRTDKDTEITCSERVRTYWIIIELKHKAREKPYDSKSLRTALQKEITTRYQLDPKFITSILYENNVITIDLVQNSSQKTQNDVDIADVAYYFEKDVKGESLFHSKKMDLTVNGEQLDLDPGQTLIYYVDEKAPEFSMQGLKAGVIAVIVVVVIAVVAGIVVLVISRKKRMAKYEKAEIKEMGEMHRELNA
Description: (§1) Cells were harvested at 80% confluence with trypsin digestion and resuspended in washing buffer (DPBS with 5 mM MgCl2) and enumerated. Following centrifugation (1000×g for 5 min), the cell pellet was resuspended in assay buffer (DPBS supplemented with 5 mM MgCl2, 0.1 mg/ml tRNA, 0.1 mg/ml salmon sperm DNA, 0.2% [w/v] sodium azide, and 5% FCS) and diluted to 1×10^6/mL. The blocking step was carried out at 4′C. The binding of the aptamers was carried out at 37′C for 30 min or 4′C for 1 h, with the final concentration of magnesium chloride being 2.5 mM in all binding assays.
(§2) The equilibrium dissociation constant (K′d) of successful 2′-fluoropyrimidine RNA aptamer species to native EpCAM expressed on the cell surface was determined using flow cytometry with EpCAM-positive and -negative cell lines and a negative control (2-O-methyl-pyrimidine) aptamer (5′-DY647-mGCmGACUmGmGUUmACCCmGmGUCmGdT-3′) (SEQ ID NO:13). Kato III or U118MG cells (5×10^5) were first incubated with assay buffer followed by two washes with binding buffer prior to incubation with serial concentrations (approximately 10-fold above and below the apparent K′d) of FITC-labelled aptamer in a 100 μL assay buffer for 1 h on ice. The cells were washed three times, resuspended in 150 μL assay buffer containing 2.5 mM MgCl2 and subjected to flow cytometric analyses. The FITC-labelled unselected library was used as another negative control. The mean fluorescence intensity (MFI) of the unselected library was subtracted from that of the aptamer-target cell to generate the MFI of specific binding. The K′d for each aptamer was determined by Scatchard analysis according to the equation: [Bound aptamer]/[aptamer]=−(1/KD)×[bound aptamer]+([T]tol/KD) where [T]tot represents the total target concentration. Design and Generation of EpCAM Aptamer-siRNA Chimera
(§3) The binding affinities of both aptamers have been characterised against all five cell lines used in this study by flow cytometry, and the results are shown in Table 1.

[2] = system: native EpCAM expressed on the cell surface; assay: as above; design: species or system human; conditions: U118MG cells (EpCAM negative); read-out: KD (±SEM)
Description: as §1, §2, §3

EpCAM [3] = assay: Immunofluorescence staining of paraffin embedded xenograft tumour sections; design: species or system human; key to Quantification of anti-EpCAM staining by immunofluorescence: ‘−’ no staining; ‘+’ faint incomplete staining in >10% of cells; ‘++’ moderate complete membrance staining; ‘+++’ strong complete membrance staining
Description: (§4) A: Immunofluorescence staining of breast cancer (T47D, MCF7 and MDA-MB-231), colon cancer (HT-29) and glioblastoma (U118MG) xenograft tumours by EpCAM aptamers, DT3 and 23, control aptamer and the anti-EpCAM antibody, 323/A3 (Blue: nuclei; Red: EpCAM positive staining). B: Immunohistochemistry was performed with the anti-EpCAM antibody BerEP4, and all tumours were evaluated by haematoxylin and eosin staining for morphological confirmation. Aptamer staining was performed for 15 min at 37° C., while 323/A3 staining was performed at 4° C. overnight and BerEP4 was performed at room temperature for 20 min. All fluorescent images were taken at 60×, while light microscopy images were taken at 20×. Images are representative of at least three separate experiments. Scale bar: 50 μm.
(§5) The cell lines of human origin used in this study were purchased from American type Culture Collection. They were glioblastoma U118-MG; breast carcinoma MCF-7, MDA-MB-231 and T47D; and colorectal adenocarcinoma HT-29. Cells were grown and maintained in culture with Dulbecco's Modified Eagle medium (DMEM) (Invitrogen, Victoria, Australia) supplemented with 10% fetal calf serum (MCF-7, T47D, HT-29, and U118-MG), or Roswell Park Memorial Institute 1640 (RPMI 1640) (Invitrogen) with 10% fetal calf serum (MDA-MB-231). Cells were maintained at 37 ^CC in a humidified atmosphere containing 5% CO2. For xenograft studies, single cell suspensions were harvested by trypsinisation, washed with PBS and resuspended in 0.1 mL of PBS for implantation in BALB/c-Foxn1 ^nu female mice. Once tumours had reached approximately […], they were excised and fixed in 10% neutral buffered formalin prior to processing and embedding. All animal procedures were approved by Deakin University Animal Welfare Committee, and in accordance with the Australian Code of Practice for the Care and Use of Animals for Scientific Purposes.
(§6) Sections from each of the xenograft tumours were cut at 4 μm onto polylysine coated slides prior to deparaffinisation with Histoclear and rehydration through graded ethanol. Heat induced antigen retrieval was performed in a microwave oven using Tris-EDTA buffer (10 mM Tris, 1 mM EDTA, 0.05% Tween 20, pH 9.0) for 20 min and the slides were allowed to cool prior to blocking with 0.1 mg/mL tRNA, 0.1 mg/mL salmon sperm DNA and 1 mg/mL bovine serum albumin (BSA) in phosphate buffered saline (PBS) for 20 min. Following the blocking step, slides were washed in PBS containing 0.1% Tween 20 twice for 2 min prior to incubation with either aptamer or antibody. Aptamers were prepared as previously described (Shigdar S et al, supra). Briefly, aptamers were heated to 85° C. for 5 min, allowed to cool to room temperature for 10 min and then heated at 37° C. for 15 min. Slides were incubated with aptamers at 100 nM concentration in a solution of PBS containing 5 mM MgCl2, 0.1 mg/mL tRNA, 1 mg/mL BSA, 10% dextran sulphate and 500 μg/mL heparin for 15 min at 37° C. The slides were then washed three times for 5 min each prior to incubation with Bisbenzimide Hoechst 33342 (3 μg/mL) for 10 min. Slides were then mounted using VECTASHIELD and coverslipped prior to visualisation using a Fluoview FV10i laser scanning confocal microscope. All images used for direct comparison were taken with identical exposure parameters and are presented without any digital contrast alteration or background subtraction. Antibody staining was performed using the anti-EpCAM antibody 323/A3 (ab8601, Abcam). […]

EpCAM [4] = target: T2, EpCAM (Homo sapiens, UniProt P16422); assay: as above; design: from tissue; host or cells: xenograft tumours of T47D, MCF7, MDA-MB-231, HT-29 and U118MG cells grown in BALB/c-Foxn1 nu mice, formalin-fixed and paraffin-embedded; key to Quantification of anti-EpCAM staining by immunofluorescence: ‘−’ no staining; ‘+’ faint incomplete staining in >10% of cells; ‘++’ moderate complete membrance staining; ‘+++’ strong complete membrance staining
T2 sequence (P16422 24-314): T1 sequence (P16422 24-314)
Description: as §4, §5
as §6, with “Abcam). Slides were washed and blocked following the same protocol as previously described prior to antibody staining. The antibody was prepared at a concentration of 10 μg/mL and the slides were incubated overnight at 4° C. Slides were then washed three times for 5 min followed by incubation with a goat-anti-mouse IgG AlexaFluor 647 conjugate (Invitrogen) at a concentration of 10 μg/mL for 2 h prior to washing, staining with Bisbenzimide Hoechst 33342, and coverslipping.” for “Abcam).”

HT29 colon cancer cells = assay: Tumoursphere formation in 96-well, HT29; type: cell-based, human; conditions: HT29, 3 μM Dox equivalent, 5 days
Description: Under non-adherent and serum-free conditions, only the cancer stem cells (CSCs) and progenitor cells survive and undergo self-renewal as well as proliferate to form tumour spheres. The inventor studied the ability of aptamer-Dox to target cancer stem cells by plating various cell doses of single-cell suspension of HT29 colon cancer cells in ultra-low attachment 96-wells in the presence of 3 μM of free Dox, 3 μM equivalent Dox conjugated with aptamer, 3 μM Dox-negative control aptamer or vehicle control for 5 days. Tumour spheres (with a size >50 μm) were enumerated.

[5] = system: PLC/PRF/5 hepatocellular carcinoma cell line; assay: Tumoursphere formation in 96-well, PLC/PRF/5; type: cell-based, human
EpCAM [6] = target: T2, EpCAM; conditions: patients with metastatic breast cancer; cited from earlier work

Molecule: 5′-GCGACUGGUUACCCGGUCG-3′ (RNA aptamer, modifications not given here, further chemistry not given here) [DT3]
- Kd ([1]; HT29 cells): 158 ± 70 nM
- Kd ([1]; MCF7 cells): 50 ± 18.5 nM
- Kd ([1]; MDA-MB-231 cells): 98.9 ± 37.8 nM
- Kd ([1]; T47D cells): 74.2 ± 26.2 nM
- Kd [2]: > 1000 nM
- Quantification of anti-EpCAM staining by immunofluorescence (EpCAM [3]; U118MG xenograft): −
- staining of U118MG xenograft (in words) (EpCAM [3]; U118MG xenograft that does not express EpCAM): no staining detectable
- staining of HT-29 xenograft sections (in words) (EpCAM [4]; HT-29 colorectal cancer xenograft): did not show any staining
- Quantification of anti-EpCAM staining by immunofluorescence (EpCAM [4]; HT-29 xenograft): −
- Quantification of anti-EpCAM staining by immunofluorescence (EpCAM [4]; MCF7 xenograft): + (‘+’ faint incomplete staining in >10% of cells)
- Quantification of anti-EpCAM staining by immunofluorescence (EpCAM [4]; MDA-MB-231 xenograft): + (‘+’ faint incomplete staining in >10% of cells)
- detection of EpCAM in MDA-MB-231 xenograft tumour (in words) (EpCAM [4]; MDA-MB-231 xenograft, low EpCAM expression): successfully detect EpCAM
- Quantification of anti-EpCAM staining by immunofluorescence (EpCAM [4]; T47D xenograft): ++
- staining of human breast cancer xenografts (in words) (EpCAM [4]; T47D, MCF7 and MDA-MB-231 xenografts, 100 nM, 15 min, 37° C., dextran sulphate and heparin): highly sensitive staining

Molecule: CC[C@@H](C(=O)[C@@H](C)[C@@H](O)[C@H](C)[C@@H]1O[C@@H]([C@@H](CC)C(=O)O)CC[C@@H]1C)[C@H]1O[C@]2(C=C[C@@H](O)[C@]3(CC[C@@](C)([C@H]4CC[C@](O)(CC)[C@H](C)O4)O3)O2)[C@H](C)C[C@@H]1C [Saline, Salinomycin]
- Number of wells with sphere (HT29 colon cancer cells; 1 cell seeded/well): 0/10
- Number of wells with sphere (HT29 colon cancer cells; 10 cells seeded/well): 0/10
- Number of wells with sphere (HT29 colon cancer cells; 100 cells seeded/well): 0/10
- Number of wells with sphere (HT29 colon cancer cells; 200 cells seeded/well): 2/10
- Number of wells with sphere ([5]; 1 cell seeded/well): 0/10
- Number of wells with sphere ([5]; 10 cells seeded/well): 0/10
- Number of wells with sphere ([5]; 100 cells seeded/well): 0/10
- Number of wells with sphere ([5]; 200 cells seeded/well): 0/10

Molecule: adecatumumab: fully humanised monoclonal anti-EpCAM antibody
- clinical response (EpCAM [6]): dose-dependent and target dependent clinical responses
